Test results from article PMC8113725, “Structure–activity relationship of ipglycermide binding to phosphoglycerate mutases” (The Journal of Biological Chemistry, 2021).
Bridge positions count the residues as written; N and C are the ends. Square brackets hold non-standard residues; d marks the D form. Peptide text beside a SMILES is read from it.

Molecular target: D. immitis iPGM (Dirofilaria immitis, UniProt F4ZE01)
Test: biochemical
Settings: Di iPGM Ave IC50 (M)

SMILES | IC50
CC(C)C[C@H](NC(=O)[C@H](Cc1ccc(O)cc1)NC(=O)[C@@H]1CSCC(=O)N[C@H](Cc2ccc(O)cc2)C(=O)N[C@@H](CCC(=O)O)C(=O)N[C@@H](Cc2ccc(O)cc2)C(=O)N2CCC[C@H]2C(=O)NCC(=O)N[C@@H](CC(=O)O)C(=O)N[C@@H](Cc2ccc(O)cc2)C(=O)N1)C(=O)N[C@@H](Cc1ccc(O)cc1)C(N)=O [Ce-2d D2E] | 9.99e-08 M
CC(C)C[C@H](NC(=O)[C@H](Cc1ccc(O)cc1)NC(=O)[C@@H]1CSCC(=O)N[C@H](Cc2ccc(O)cc2)C(=O)N[C@@H](CC(=O)O)C(=O)N[C@@H](Cc2ccc(O)cc2)C(=O)N2CCC[C@H]2C(=O)NCC(=O)N[C@@H](CC(=O)O)C(=O)N[C@@H](Cc2ccc(O)cc2)C(=O)N1)C(=O)N[C@@H](Cc1ccc(F)cc1)C(N)=O [Ce-2d Y11(4F)F] | 7.11e-08 M
CC(C)C[C@H](NC(=O)[C@H](Cc1ccc(O)cc1)NC(=O)[C@@H]1CSCC(=O)N[C@H](Cc2ccc(O)cc2)C(=O)N[C@@H](CC(=O)O)C(=O)N[C@@H](Cc2ccc(F)cc2)C(=O)N2CCC[C@H]2C(=O)NCC(=O)N[C@@H](CC(=O)O)C(=O)N[C@@H](Cc2ccccc2)C(=O)N1)C(=O)N[C@@H](Cc1ccc(O)cc1)C(=O)NCC(=O)N[C@H](C(=O)N[C@@H](CS)C(N)=O)[C@@H](C)O | 1.41e-09 M
CC(C)[C@H](NC(=O)[C@H](Cc1ccc(O)cc1)NC(=O)[C@@H]1CSCC(=O)N[C@H](Cc2ccc(O)cc2)C(=O)N[C@@H](CC(=O)O)C(=O)N[C@@H](Cc2ccc(O)cc2)C(=O)N2CCC[C@H]2C(=O)NCC(=O)N[C@@H](CC(=O)O)C(=O)N[C@@H](Cc2ccc(O)cc2)C(=O)N1)C(=O)N[C@@H](Cc1ccc(O)cc1)C(N)=O [Ce-2d L10V] | 1.93e-06 M
COc1ccc(C[C@H](NC(=O)[C@@H]2CSCC(=O)N[C@H](Cc3ccc(O)cc3)C(=O)N[C@@H](CC(=O)O)C(=O)N[C@@H](Cc3ccc(O)cc3)C(=O)N3CCC[C@H]3C(=O)NCC(=O)N[C@@H](CC(=O)O)C(=O)N[C@@H](Cc3ccc(O)cc3)C(=O)N2)C(=O)N[C@@H](CC(C)C)C(=O)N[C@@H](Cc2ccc(O)cc2)C(N)=O)cc1 [Ce-2d Y9(4OMe)F] | 2.04e-06 M
CC(C)C[C@H](NC(=O)[C@H](Cc1ccc(O)cc1)NC(=O)[C@@H]1CSCC(=O)N[C@H](Cc2ccc(O)cc2)C(=O)N[C@@H](CC(=O)O)C(=O)N[C@@H](Cc2ccc(O)cc2)C(=O)N2CCC[C@H]2C(=O)N[C@@H](CCC(N)=O)C(=O)N[C@@H](CC(=O)O)C(=O)N[C@@H](Cc2ccc(O)cc2)C(=O)N1)C(=O)N[C@@H](Cc1ccc(O)cc1)C(N)=O [Ce-2d G5Q] | 5.99e-06 M
CC(C)C[C@H](NC(=O)[C@H](Cc1ccc(O)cc1)NC(=O)[C@@H]1CSCC(=O)N[C@H](Cc2ccc(O)cc2)C(=O)N[C@@H](CC(=O)O)C(=O)N[C@@H](Cc2c[nH]c3ccccc23)C(=O)N2CCC[C@H]2C(=O)NCC(=O)N[C@@H](CC(=O)O)C(=O)N[C@@H](Cc2ccc(O)cc2)C(=O)N1)C(=O)N[C@@H](Cc1ccc(O)cc1)C(N)=O [Ce-2d Y3W] | 7.09e-06 M
CC(C)C[C@H](NC(=O)[C@H](Cc1ccc(F)cc1)NC(=O)[C@@H]1CSCC(=O)N[C@H](Cc2ccc(O)cc2)C(=O)N[C@@H](CC(=O)O)C(=O)N[C@@H](Cc2ccc(O)cc2)C(=O)N2CCC[C@H]2C(=O)NCC(=O)N[C@@H](CC(=O)O)C(=O)N[C@@H](Cc2ccc(O)cc2)C(=O)N1)C(=O)N[C@@H](Cc1ccc(O)cc1)C(N)=O [Ce-2d Y9(4F)F] | 3.33e-07 M
CC(C)C[C@H](NC(=O)[C@H](Cc1ccc(O)cc1)NC(=O)[C@@H]1CSCC(=O)N[C@H](Cc2ccc(O)cc2)C(=O)N[C@@H](CC(=O)O)C(=O)N[C@@H](Cc2ccc(O)cc2)C(=O)N2CCC[C@H]2C(=O)NCC(=O)N[C@@H](CC(=O)O)C(=O)N[C@@H](CO)C(=O)N1)C(=O)N[C@@H](Cc1ccc(O)cc1)C(N)=O [Ce-2d Y7S] | 1.78e-07 M
CC(C)C[C@H](NC(=O)[C@H](Cc1ccc(O)cc1)NC(=O)[C@@H]1CSCC(=O)N[C@H](Cc2ccc(O)cc2)C(=O)N[C@@H](CC(=O)O)C(=O)N[C@@H](Cc2ccc(F)cc2)C(=O)N2CCC[C@H]2C(=O)NCC(=O)N[C@@H](CC(=O)O)C(=O)N[C@@H](Cc2ccc(O)cc2)C(=O)N1)C(=O)N[C@@H](Cc1ccc(O)cc1)C(N)=O [Ce-2d Y3(4F)F] | 1.48e-07 M
COc1ccc(C[C@@H]2NC(=O)[C@H](CC(=O)O)NC(=O)CNC(=O)[C@@H]3CCCN3C(=O)[C@H](Cc3ccc(O)cc3)NC(=O)[C@H](CC(=O)O)NC(=O)[C@@H](Cc3ccc(O)cc3)NC(=O)CSC[C@@H](C(=O)N[C@@H](Cc3ccc(O)cc3)C(=O)N[C@@H](CC(C)C)C(=O)N[C@@H](Cc3ccc(O)cc3)C(N)=O)NC2=O)cc1 [Ce-2d Y7(4OMe)F] | 6.79e-08 M
CC(C)C[C@H](NC(=O)[C@H](Cc1ccc(O)cc1)NC(=O)[C@@H]1CSCC(=O)N[C@H](Cc2ccc(O)cc2)C(=O)N[C@@H](CC(=O)O)C(=O)N[C@@H](Cc2ccc(O)cc2)C(=O)N[C@@H](C)C(=O)NCC(=O)N[C@@H](CC(=O)O)C(=O)N[C@@H](Cc2ccc(O)cc2)C(=O)N1)C(=O)N[C@@H](Cc1ccc(O)cc1)C(N)=O [Ce-2d P4A] | 7.94e-08 M
CC(C)C[C@H](NC(=O)[C@H](Cc1ccc(O)cc1)NC(=O)[C@@H]1CSCC(=O)N[C@H](Cc2ccc(F)cc2)C(=O)N[C@@H](CC(=O)O)C(=O)N[C@@H](Cc2ccc(O)cc2)C(=O)N2CCC[C@H]2C(=O)NCC(=O)N[C@@H](CC(=O)O)C(=O)N[C@@H](Cc2ccc(O)cc2)C(=O)N1)C(=O)N[C@@H](Cc1ccc(O)cc1)C(N)=O [Ce-2d Y1D(4F)F] | 3.7e-08 M
CC(C)C[C@H](NC(=O)[C@H](Cc1ccc(O)cc1)NC(=O)[C@@H]1CSCC(=O)N[C@H](Cc2ccc(O)cc2)C(=O)N[C@@H](CC(=O)O)C(=O)N[C@@H](Cc2ccc(O)cc2)C(=O)N2CCC[C@H]2C(=O)NCC(=O)N[C@@H](CC(=O)O)C(=O)N[C@@H](Cc2ccc(O)cc2)C(=O)N1)C(=O)N[C@@H](Cc1ccc(O)cc1)C(=O)O [Ce-2d Y11COOH] | 7.75e-07 M
CC(C)C[C@H](NC(=O)[C@H](Cc1ccccc1)NC(=O)[C@@H]1CSCC(=O)N[C@H](Cc2ccc(O)cc2)C(=O)N[C@@H](CC(=O)O)C(=O)N[C@@H](Cc2ccc(O)cc2)C(=O)N2CCC[C@H]2C(=O)NCC(=O)N[C@@H](CC(=O)O)C(=O)N[C@@H](Cc2ccc(O)cc2)C(=O)N1)C(=O)N[C@@H](Cc1ccc(O)cc1)C(N)=O [Ce-2d Y9F] | 1.43e-05 M
CC(C)C[C@H](NC(=O)[C@H](Cc1ccc(O)cc1)NC(=O)[C@@H]1CSCC(=O)N[C@H](Cc2ccc(O)cc2)C(=O)N[C@@H](C(C)C)C(=O)N[C@@H](Cc2ccc(O)cc2)C(=O)N2CCC[C@H]2C(=O)NCC(=O)N[C@@H](CC(=O)O)C(=O)N[C@@H](Cc2ccc(O)cc2)C(=O)N1)C(=O)N[C@@H](Cc1ccc(O)cc1)C(N)=O [Ce-2d D2V] | 5.77e-07 M
CC(C)C[C@H](NC(=O)[C@H](Cc1ccc(O)cc1)NC(=O)[C@@H]1CSCC(=O)N[C@H](Cc2ccc(O)cc2)C(=O)N[C@@H](CC(=O)O)C(=O)N[C@@H](Cc2ccccc2)C(=O)N2CCC[C@H]2C(=O)NCC(=O)N[C@@H](CC(=O)O)C(=O)N[C@@H](Cc2ccc(O)cc2)C(=O)N1)C(=O)N[C@@H](Cc1ccc(O)cc1)C(=O)NCC(=O)N[C@H](C(=O)N[C@@H](CS)C(N)=O)[C@@H](C)O [Ce-2 Y3F] ({CH2CO}-[dY]DFPGDYCYLYGTC-NH2; thioether N-8) | 2.42e-09 M
CC(C)C[C@H](NC(=O)[C@H](Cc1ccc(O)cc1)NC(=O)[C@@H]1CSCC(=O)N[C@H](Cc2ccc(O)cc2)C(=O)N[C@@H](CC(=O)O)C(=O)N[C@@H](Cc2ccc(O)cc2)C(=O)N2CCC[C@H]2C(=O)NCC(=O)N[C@@H](CC(=O)O)C(=O)N[C@@H](Cc2ccc(O)cc2)C(=O)N1)C(=O)N[C@@H](Cc1ccccc1)C(N)=O [Ce-2d Y11F] | 9.89e-08 M
CC(C)C[C@H](NC(=O)[C@H](Cc1ccc(O)cc1)NC(=O)[C@@H]1CSCC(=O)N[C@H](Cc2ccc(O)cc2)C(=O)NCC(=O)N[C@@H](Cc2ccc(O)cc2)C(=O)N2CCC[C@H]2C(=O)NCC(=O)N[C@@H](CC(=O)O)C(=O)N[C@@H](Cc2ccc(O)cc2)C(=O)N1)C(=O)N[C@@H](Cc1ccc(O)cc1)C(N)=O [Ce-2d D2G] | 1.32e-06 M
CC(C)C[C@H](NC(=O)[C@H](Cc1ccc(O)cc1)NC(=O)[C@@H]1CSCC(=O)N[C@H](Cc2ccc(O)cc2)C(=O)N[C@@H](CC(=O)O)C(=O)N[C@@H](Cc2ccc(O)cc2)C(=O)N2CCC[C@H]2C(=O)NCC(=O)N[C@@H](CC(N)=O)C(=O)N[C@@H](Cc2ccc(O)cc2)C(=O)N1)C(=O)N[C@@H](Cc1ccc(O)cc1)C(N)=O [Ce-2d D6N] | 6.18e-06 M
CC(C)C[C@H](NC(=O)[C@H](Cc1ccc(O)cc1)NC(=O)[C@@H]1CSCC(=O)N[C@@H](Cc2ccc(F)cc2)C(=O)N[C@@H](CC(=O)O)C(=O)N[C@@H](Cc2ccc(O)cc2)C(=O)N2CCC[C@H]2C(=O)NCC(=O)N[C@@H](CC(=O)O)C(=O)N[C@@H](Cc2ccc(O)cc2)C(=O)N1)C(=O)N[C@@H](Cc1ccc(O)cc1)C(N)=O [Ce-2d Y1(4F)F] | 5.35e-08 M
CC(C)C[C@H](NC(=O)[C@H](CC(C)C)NC(=O)[C@H](Cc1ccc(O)cc1)NC(=O)[C@@H]1CSCC(=O)N[C@H](Cc2ccc(O)cc2)C(=O)N[C@@H](CC(=O)O)C(=O)N[C@@H](Cc2ccc(O)cc2)C(=O)N2CCC[C@H]2C(=O)NCC(=O)N[C@@H](CC(=O)O)C(=O)N[C@@H](Cc2ccc(O)cc2)C(=O)N1)C(N)=O [Ce-2d Y11L] | 2.43e-07 M
CC(C)C[C@H](NC(=O)[C@H](Cc1ccc(O)cc1)NC(=O)[C@@H]1CSCC(=O)N[C@H](Cc2ccc(O)cc2)C(=O)N[C@@H](CC(=O)O)C(=O)N[C@@H](Cc2ccccc2)C(=O)N2CCC[C@H]2C(=O)NCC(=O)N[C@@H](CC(=O)O)C(=O)N[C@@H](Cc2ccc(O)cc2)C(=O)N1)C(=O)N[C@@H](Cc1ccc(O)cc1)C(N)=O [Ce-2d Y3F] | 3.2e-06 M
